Laboratory results: the supplement of paper PMC10307832

What was measured:
Experiment in all cases: relative viability (nuclei count vs DMSO), 5 days (fraction); higher = more cells survive
Etoposide + Navitoclax = compound: COc1cc([C@@H]2c3cc4c(cc3[C@@H](O[C@@H]3O[C@@H]5CO[C@@H](C)O[C@H]5[C@H](O)[C@H]3O)[C@H]3COC(=O)[C@H]23)OCO4)cc(OC)c1O [Etoposide] + CC1(C)CCC(c2ccc(Cl)cc2)=C(CN2CCN(c3ccc(C(=O)NS(=O)(=O)c4ccc(N[C@H](CCN5CCOCC5)CSc5ccccc5)c(S(=O)(=O)C(F)(F)F)c4)cc3)CC2)C1 [Navitoclax] (partner 0.5 µM)
In short: (§1)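 Dosing by pin tool came one day after lung cancer cell lines were seeded in 1536-well plates, using either one drug or a fixed anchor-drug dose plus five library-drug doses (not always all listed) in √10 steps. After 5 days, nuclei were counted on 4× images. Relative viability is treated-well nuclei count divided by vehicle-well nuclei count, and values are medians of duplicate plates.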

Etoposide = compound: COc1cc([C@@H]2c3cc4c(cc3[C@@H](O[C@@H]3O[C@@H]5CO[C@@H](C)O[C@H]5[C@H](O)[C@H]3O)[C@H]3COC(=O)[C@H]23)OCO4)cc(OC)c1O [Etoposide]
In short: (§2)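 Five library-drug doses, separated by factors of √10, were pinned into 1536-well plates holding lung cancer cell lines after an overnight stay at 37 °C. Cells were fixed, permeabilised and Hoechst-stained in one step after 5 days without medium change, then imaged at 4×. Viability compares treated-well with vehicle-well nuclei, counted in MetaXpress, as a median across plates. Passing plates had control CV below 25% and at least one doubling.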

Bleomycin = compound: CC1=C(N=C(N=C1N)[C@H](CC(=O)N)NC[C@@H](C(=O)N)N)C(=O)N[C@@H]([C@H](C2=CN=CN2)OC3C(C(C(C(O3)CO)O)O)OC4C(C(C(C(O4)CO)O)OC(=O)N)O)C(=O)N[C@H](C)[C@H]([C@H](C)C(=O)N[C@@H]([C@@H](C)O)C(=O)NCCC5=NC(=CS5)C6=NC(=CS6)C(=O)NCCC[S+](C)C)O [Bleomycin]; conditions: main component drawn
In short: as §2

Bleomycin + Trametinib = compound: CC1=C(N=C(N=C1N)[C@H](CC(=O)N)NC[C@@H](C(=O)N)N)C(=O)N[C@@H]([C@H](C2=CN=CN2)OC3C(C(C(C(O3)CO)O)O)OC4C(C(C(C(O4)CO)O)OC(=O)N)O)C(=O)N[C@H](C)[C@H]([C@H](C)C(=O)N[C@@H]([C@@H](C)O)C(=O)NCCC5=NC(=CS5)C6=NC(=CS6)C(=O)NCCC[S+](C)C)O [Bleomycin] + CC(=O)Nc1cccc(-n2c(=O)n(C3CC3)c(=O)c3c(Nc4ccc(I)cc4F)n(C)c(=O)c(C)c32)c1 [Trametinib] (partner 0.02 µM); conditions: main component drawn
In short: as §1

Cell Line	relative viability (Etoposide + Navitoclax; first compound 0.01 µM)	relative viability (Etoposide + Navitoclax; first compound 0.03162 µM)	relative viability (Etoposide + Navitoclax; first compound 0.1 µM)	relative viability (Etoposide + Navitoclax; first compound 0.3162 µM)	relative viability (Etoposide + Navitoclax; first compound 1 µM)	relative viability (Etoposide; 0.01 µM)	relative viability (Etoposide; 0.03162 µM)	relative viability (Etoposide; 0.1 µM)	relative viability (Etoposide; 0.3162 µM)	relative viability (Etoposide; 1 µM)	relative viability (Bleomycin; 0.01 µM)	relative viability (Bleomycin; 0.03162 µM)	relative viability (Bleomycin; 0.1 µM)	relative viability (Bleomycin; 0.3162 µM)	relative viability (Bleomycin; 1 µM)	relative viability (Bleomycin + Trametinib; first compound 0.01 µM)	relative viability (Bleomycin + Trametinib; first compound 0.03162 µM)	relative viability (Bleomycin + Trametinib; first compound 0.1 µM)	relative viability (Bleomycin + Trametinib; first compound 0.3162 µM)	relative viability (Bleomycin + Trametinib; first compound 1 µM)
Calu-6	0.883	0.722	0.828	0.418	0.213	0.938	0.985	1.05	0.684	0.365	0.77	0.784	0.495	0.205	0.174	–	–	–	–	–
SW 1573	0.926	0.946	0.639	0.209	0.0658	0.968	0.986	0.635	0.309	0.167	0.743	0.705	0.677	0.396	0.286	0.47	0.424	0.322	0.191	0.141
RERF-LC-KJ	0.829	0.94	0.957	0.829	0.488	0.846	1.06	0.861	0.873	0.653	0.694	0.675	0.591	0.308	0.271	0.678	0.563	0.492	0.272	0.229
EMC-BAC-2	1.08	1.05	0.83	0.297	0.161	0.964	0.959	0.453	0.278	0.234	0.72	0.91	0.747	0.418	0.302	–	0.6	0.535	0.306	0.29
LK-2	0.815	0.945	0.643	0.498	0.267	0.979	1.31	0.684	0.663	0.268	0.686	0.575	0.485	0.28	0.277	0.474	0.389	0.449	0.263	0.254
NCI-H1299	1.06	1.02	1.05	0.946	0.785	1.01	0.995	1.07	0.932	0.779	0.937	1.03	0.936	0.601	0.287	–	–	–	–	–
LCLC-103H	–	–	–	–	–	0.976	1.15	0.879	0.942	0.864	0.916	0.94	0.982	0.569	0.382	0.628	0.678	0.62	0.691	0.507
ABC-1	–	–	–	–	–	1.08	0.954	0.697	0.41	0.273	0.741	0.942	0.891	0.383	0.29	–	–	–	–	–
NCI-H661	–	–	–	–	–	1.03	1.03	0.873	0.827	0.565	0.907	0.875	0.767	0.475	0.394	0.546	0.484	0.477	0.392	0.292
NCI-H1648	–	–	–	–	–	–	1.01	0.783	0.674	0.516	0.71	0.696	0.773	0.608	0.68	0.388	0.4	0.416	0.269	0.295
NCI-H1563	–	–	–	–	–	0.816	0.974	0.791	0.641	0.55	0.843	0.836	0.783	0.625	0.652	–	–	–	–	–
A549	1.25	1.04	0.46	0.157	0.0716	0.875	0.947	0.476	0.281	0.131	0.843	0.789	0.608	0.132	0.0828	–	–	–	–	–
NCI-H522	–	–	–	–	–	0.977	1.04	0.811	0.928	0.743	0.833	0.79	0.666	0.432	0.345	0.776	0.705	0.763	0.433	0.379
NCI-H1623	–	–	–	–	–	0.859	0.907	0.687	0.818	0.303	0.84	0.936	0.807	0.466	0.469	–	–	–	–	–
SW 900	–	–	–	–	–	0.778	0.809	0.729	0.524	0.224	0.697	0.816	0.6	0.21	0.205	0.858	0.561	0.453	0.259	0.197
IA-LM	0.595	0.742	0.731	0.616	0.431	0.88	0.946	0.742	0.875	0.655	0.873	0.852	0.839	0.347	0.356	–	–	–	–	–
NCI-H358	–	–	–	–	–	0.985	0.982	0.564	0.302	0.17	0.879	0.944	0.829	0.445	0.428	0.138	0.138	0.127	0.138	0.108
EBC-1	0.319	0.41	0.254	0.378	0.225	0.977	1.06	0.714	0.872	0.562	0.893	0.951	0.905	0.836	0.602	–	–	–	–	–
